Data reported in US12528788B2, “Pesticidally active benzene- and azine-amide compounds” (SYNGENTA CROP PROTECTION AG, priority 2018, dated 2026).

Key:
Format in all cases: in vivo
Diabrotica balteata = assay: Example B1: Diabrotica balteata (corn root worm), maize sprouts sprayed, L2 larvae; details: 96 h, application rate of 200 ppm, 4 days after infestation, L2 larvae on maize sprouts, read-out: control in at least one of the two categories (mortality or growth inhibition)
Method: Example B1: Diabrotica balteata (Corn Root Worm)
Maize sprouts placed onto an agar layer in 24-well microtiter plates were treated with aqueous test solutions prepared from 10′000 ppm DMSO stock solutions by spraying. After drying, the plates were infested with L2 larvae (6 to 10 per well). The samples were assessed for mortality and growth inhibition in comparison to untreated samples 4 days after infestation.

Euschistus heros = assay: Example B2: Euschistus heros (neotropical brown stink bug), soybean leaves sprayed, N2 nymphs; details: 120 h, application rate of 200 ppm, 5 days after infestation, N2 nymphs on soybean leaves, read-out: control in at least one of the two categories (mortality or growth inhibition)
Method: Example B2: Euschistus heros (Neotropical Brown Stink Bug)
Soybean leaves on agar in 24-well microtiter plates were sprayed with aqueous test solutions prepared from 10′000 ppm DMSO stock solutions. After drying the leaves were infested with N2 nymphs. The samples were assessed for mortality and growth inhibition in comparison to untreated samples 5 days after infestation.

Chilo suppressalis = assay: Example B4: Chilo suppressalis (striped rice stemborer), artificial diet, L2 larvae; details: 144 h, application rate of 200 ppm, 6 days after infestation, read-out: control in at least one of the three categories (mortality, anti-feedant effect or growth inhibition)
Method: Example B4: Chilo suppressalis (Striped Rice Stemborer)
24-well microtiter plates with artificial diet were treated with aqueous test solutions prepared from 10′000 ppm DMSO stock solutions by pipetting. After drying, the plates were infested with L2 larvae (6-8 per well). The samples were assessed for mortality, anti-feeding effect, and growth inhibition in comparison to untreated samples 6 days after infestation. Control of Chilo suppressalis by a test sample is given when at least one of the categories mortality, anti-feedant effect, and growth inhibition is higher than the untreated sample.

Plutella xylostella [1] = assay: Example B5: Plutella xylostella (diamond back moth), artificial diet, 24-well, eggs; details: 192 h, application rate of 200 ppm, 8 days after infestation, read-out: control in at least one of the two categories (mortality or growth inhibition)
Method: Example B5: Plutella xylostella (Diamond Back Moth)
24-well microtiter plates with artificial diet were treated with aqueous test solutions prepared from 10′000 ppm DMSO stock solutions by pipetting. After drying, Plutella eggs were pipetted through a plastic stencil onto a gel blotting paper and the plate was closed with it. The samples were assessed for mortality and growth inhibition in comparison to untreated samples 8 days after infestation.

Myzus persicae [2] = assay: Example B8: Myzus persicae (green peach aphid) intrinsic activity; details: 120 h, test rate of 12 ppm, 5 days after infestation, sucrose solution
Source text: Example B8: Myzus persicae (Green Peach Aphid). Intrinsic Activity
Test compounds prepared from 10′000 ppm DMSO stock solutions were applied by pipette into 24-well microtiter plates and mixed with sucrose solution. The plates were closed with a stretched Parafilm. A plastic stencil with 24 holes was placed onto the plate and infested pea seedlings were placed directly on the Parafilm. The infested plate was closed with a gel blotting paper and another plastic stencil and then turned upside down. The samples were assessed for mortality 5 days after infestation.

Spodoptera littoralis [3] = assay: Example B9: Spodoptera littoralis (Egyptian cotton leaf worm), cotton leaf discs sprayed, L1 larvae; details: foliar, 72 h, application rate of 200 ppm, 3 days after infestation, read-out: control in at least one of the three categories (mortality, anti-feedant effect or growth inhibition)
Myzus persicae [4] = assay: Example B7: Myzus persicae (green peach aphid) systemic activity; details: 144 h, test rate of 24 ppm, 6 days after placing seedlings into test solutions, pea seedlings
Method: Example B7: Myzus persicae (Green Peach Aphid) Systemic Activity
Roots of pea seedlings infested with an aphid population of mixed ages were placed directly into aqueous test solutions prepared from 10′000 DMSO stock solutions. The samples were assessed for mortality 6 days after placing seedlings into test solutions.

Spodoptera littoralis [5] = assay: Example B10: Spodoptera littoralis (Egyptian cotton leaf worm), uptake by lettuce roots from agar; details: 144 h, test rate of 12.5 ppm, 6 days after infestation, lettuce grown on treated agar, read-out: control in at least one of the three categories (mortality, anti-feeding, or growth inhibition)
Source text: Example B10: Spodoptera littoralis (Egyptian Cotton Leaf Worm)
Test compounds were applied by pipette from 10′000 ppm DMSO stock solutions into 24-well plates and mixed with agar. Lettuce seeds were placed onto the agar and the multi well plate was closed by another plate which contained also agar. After 7 days the compound was absorbed by the roots and the lettuce grew into the lid plate. The lettuce leaves were then cut off into the lid plate. Spodoptera eggs were pipetted through a plastic stencil onto a humid gel blotting paper and the lid plate was closed with it. The samples were assessed for mortality, anti-feedant effect and growth inhibition in comparison to untreated samples 6 days after infestation.

Myzus persicae [6] = assay: Example B13: Myzus persicae (green peach aphid), 96-well sucrose solution; details: 120 h, application rate of 50 ppm, 5 days after infestation
Source text: Example B13: Myzus persicae (Green Peach Aphid)
Test compounds prepared from 10′000 ppm DMSO stock solutions were applied by a liquid handling robot into 96-well microtiter plates and mixed with a sucrose solution. Parafilm was stretched over the 96-well microtiter plate and a plastic stencil with 96 holes was placed onto the plate. Aphids were sieved into the wells directly onto the Parafilm. The infested plates were closed with a gel blotting card and a second plastic stencil and then turned upside down. The samples were assessed for mortality 5 days after infestation.

Plutella xylostella [7] = assay: Example B14: Plutella xylostella (diamondback moth), 96-well artificial diet; details: 216 h, application rate of 500 ppm, 9 days after infestation
Method: Example B14: Plutella xylostella (Diamondback Moth)
96-well microtiter plates containing artificial diet were treated with aqueous test solutions, prepared from 10′000 ppm DMSO stock solutions, by a liquid handling robot. After drying, eggs (˜30 per well) were infested onto a netted lid which was suspended above the diet. The eggs hatch and L1 larvae move down to the diet. The samples were assessed for mortality 9 days after infestation.

Tetranychus urticae = assay: Example B11: Tetranychus urticae (two-spotted spider mite) feeding/contact activity; details: foliar, 192 h, application rate of 200 ppm, 8 days after infestation, bean leaf discs, mixed population (mobile stages)
Method: Example B11: Tetranychus urticae (Two-Spotted Spider Mite): Feeding/Contact Activity
Bean leaf discs on agar in 24-well microtiter plates were sprayed with aqueous test solutions prepared from 10′000 ppm DMSO stock solutions. After drying the leaf discs were infested with a mite population of mixed ages. The samples were assessed for mortality on mixed population (mobile stages) 8 days after infestation.

Myzus persicae [8] = assay: Example B6: Myzus persicae (green peach aphid) feeding/contact activity; details: foliar, 144 h, application rate of 200 ppm, 6 days after infestation, sunflower leaf discs
Method: Example B6: Myzus persicae (Green Peach Aphid) Feeding/Contact Activity
Sunflower leaf discs were placed onto agar in a 24-well microtiter plate and sprayed with aqueous test solutions prepared from 10′000 ppm DMSO stock solutions. After drying, the leaf discs were infested with an aphid population of mixed ages. The samples were assessed for mortality 6 days after infestation.

CC(NC(=O)c1cc(C(F)(F)F)cc(C(F)(F)F)c1)c1nccnc1-c1ncccn1 (stereo not drawn) [Compound P12, N-[1-(3-pyrimidin-2-ylpyrazin-2-yl)ethyl]-3,5-bis(trifluoromethyl)benzamide]
≥ 80%: percent control (mortality or growth inhibition) at 200 ppm (Diabrotica balteata) | percent control (mortality or growth inhibition) at 200 ppm (Euschistus heros) | percent control (mortality, anti-feedant effect or growth inhibition) at 200 ppm (Chilo suppressalis) | percent control (mortality or growth inhibition) at 200 ppm (Plutella xylostella [1]) | mortality at 12 ppm (Myzus persicae [2]) | percent control (mortality, anti-feedant effect or growth inhibition) at 200 ppm (Spodoptera littoralis [3])

CC(NC(=O)c1cc(OCC(F)F)cc(C(F)(F)F)c1)c1nccnc1-c1ncccn1 (stereo not drawn) [Compound P14, 3-(2,2-difluoroethoxy)-N-[1-(3-pyrimidin-2-ylpyrazin-2-yl)ethyl]-5-(trifluoromethyl)benzamide]
≥ 80%: percent control (mortality or growth inhibition) at 200 ppm (Euschistus heros) | percent control (mortality, anti-feedant effect or growth inhibition) at 200 ppm (Chilo suppressalis) | percent control (mortality or growth inhibition) at 200 ppm (Plutella xylostella [1]) | mortality at 24 ppm (Myzus persicae [4]) | mortality at 12 ppm (Myzus persicae [2]) | percent control (mortality, anti-feedant effect or growth inhibition) at 200 ppm (Spodoptera littoralis [3]) | percent control (mortality, anti-feeding or growth inhibition) at 12.5 ppm (Spodoptera littoralis [5]) | mortality at 50 ppm (Myzus persicae [6]) | mortality at 500 ppm (Plutella xylostella [7])

CC(NC(=O)c1cc(C(F)(F)F)nc(C(F)(F)F)c1)c1nccnc1-c1ncccn1 (stereo not drawn) [Compound P15, N-[1-(3-pyrimidin-2-ylpyrazin-2-yl)ethyl]-2,6-bis(trifluoromethyl)pyridine-4-carboxamide]
≥ 80%: percent control (mortality or growth inhibition) at 200 ppm (Diabrotica balteata) | percent control (mortality or growth inhibition) at 200 ppm (Euschistus heros) | percent control (mortality, anti-feedant effect or growth inhibition) at 200 ppm (Chilo suppressalis) | percent control (mortality or growth inhibition) at 200 ppm (Plutella xylostella [1]) | mortality at 12 ppm (Myzus persicae [2]) | percent control (mortality, anti-feedant effect or growth inhibition) at 200 ppm (Spodoptera littoralis [3]) | mortality at 50 ppm (Myzus persicae [6]) | mortality at 500 ppm (Plutella xylostella [7])

CC(NC(=O)c1cc(Cl)cc(OC(F)(F)F)c1)c1nccnc1-c1ncccn1 (stereo not drawn) [Compound P16, 3-chloro-N-[1-(3-pyrimidin-2-ylpyrazin-2-yl)ethyl]-5-(trifluoromethoxy)benzamide]
≥ 80%: percent control (mortality or growth inhibition) at 200 ppm (Diabrotica balteata) | percent control (mortality or growth inhibition) at 200 ppm (Euschistus heros) | percent control (mortality, anti-feedant effect or growth inhibition) at 200 ppm (Chilo suppressalis) | percent control (mortality or growth inhibition) at 200 ppm (Plutella xylostella [1]) | mortality at 12 ppm (Myzus persicae [2]) | percent control (mortality, anti-feedant effect or growth inhibition) at 200 ppm (Spodoptera littoralis [3]) | percent control (mortality, anti-feeding or growth inhibition) at 12.5 ppm (Spodoptera littoralis [5]) | mortality at 50 ppm (Myzus persicae [6]) | mortality at 500 ppm (Plutella xylostella [7])

CC(NC(=O)c1cc(OCC(F)(F)F)cc(C(F)(F)F)c1)c1nccnc1-c1ncccn1 (stereo not drawn) [Compound P17, N-[1-(3-pyrimidin-2-ylpyrazin-2-yl)ethyl]-3-(2,2,2-trifluoroethoxy)-5-(trifluoromethyl)benzamide]
≥ 80%: percent control (mortality or growth inhibition) at 200 ppm (Euschistus heros) | percent control (mortality, anti-feedant effect or growth inhibition) at 200 ppm (Chilo suppressalis) | percent control (mortality or growth inhibition) at 200 ppm (Plutella xylostella [1]) | mortality at 12 ppm (Myzus persicae [2]) | percent control (mortality, anti-feedant effect or growth inhibition) at 200 ppm (Spodoptera littoralis [3]) | mortality at 50 ppm (Myzus persicae [6]) | mortality at 500 ppm (Plutella xylostella [7])

CC(NC(=O)c1cc(C(F)(F)F)cc(C(F)(F)F)c1)c1nccnc1-c1ccc(F)cn1 (stereo not drawn) [Compound P18, N-[1-[3-(5-fluoro-2-pyridyl)pyrazin-2-yl]ethyl]-3,5-bis(trifluoromethyl)benzamide]
≥ 80%: percent control (mortality or growth inhibition) at 200 ppm (Diabrotica balteata) | percent control (mortality, anti-feedant effect or growth inhibition) at 200 ppm (Chilo suppressalis) | percent control (mortality, anti-feedant effect or growth inhibition) at 200 ppm (Spodoptera littoralis [3]) | mortality at 200 ppm (Tetranychus urticae) | mortality at 50 ppm (Myzus persicae [6]) | mortality at 500 ppm (Plutella xylostella [7])

CC(NC(=O)c1cc(Br)cc(C(F)(F)F)c1)c1nccnc1-c1ncccn1 (stereo not drawn) [Compound P20, 3-bromo-N-[1-(3-pyrimidin-2-ylpyrazin-2-yl)ethyl]-5-(trifluoromethyl)benzamide]
≥ 80%: percent control (mortality or growth inhibition) at 200 ppm (Diabrotica balteata) | percent control (mortality or growth inhibition) at 200 ppm (Euschistus heros) | percent control (mortality, anti-feedant effect or growth inhibition) at 200 ppm (Chilo suppressalis) | percent control (mortality or growth inhibition) at 200 ppm (Plutella xylostella [1]) | mortality at 12 ppm (Myzus persicae [2]) | percent control (mortality, anti-feedant effect or growth inhibition) at 200 ppm (Spodoptera littoralis [3]) | percent control (mortality, anti-feeding or growth inhibition) at 12.5 ppm (Spodoptera littoralis [5]) | mortality at 50 ppm (Myzus persicae [6]) | mortality at 500 ppm (Plutella xylostella [7])

CC(NC(=O)c1cc(Cl)cc(C(F)(F)F)c1)c1nccnc1-c1ncccn1 (stereo not drawn) [Compound P21, 3-chloro-N-[1-(3-pyrimidin-2-ylpyrazin-2-yl)ethyl]-5-(trifluoromethyl)benzamide]
≥ 80%: percent control (mortality or growth inhibition) at 200 ppm (Diabrotica balteata) | percent control (mortality or growth inhibition) at 200 ppm (Euschistus heros) | percent control (mortality, anti-feedant effect or growth inhibition) at 200 ppm (Chilo suppressalis) | percent control (mortality or growth inhibition) at 200 ppm (Plutella xylostella [1]) | mortality at 12 ppm (Myzus persicae [2]) | percent control (mortality, anti-feedant effect or growth inhibition) at 200 ppm (Spodoptera littoralis [3]) | percent control (mortality, anti-feeding or growth inhibition) at 12.5 ppm (Spodoptera littoralis [5]) | mortality at 50 ppm (Myzus persicae [6]) | mortality at 500 ppm (Plutella xylostella [7])

CC(NC(=O)c1cc(C(F)F)cc(C(F)(F)F)c1)c1nccnc1-c1ncccn1 (stereo not drawn) [Compound P22, 3-(difluoromethyl)-N-[1-(3-pyrimidin-2-ylpyrazin-2-yl)ethyl]-5-(trifluoromethyl)benzamide]
≥ 80%: percent control (mortality or growth inhibition) at 200 ppm (Diabrotica balteata) | percent control (mortality or growth inhibition) at 200 ppm (Euschistus heros) | percent control (mortality, anti-feedant effect or growth inhibition) at 200 ppm (Chilo suppressalis) | percent control (mortality or growth inhibition) at 200 ppm (Plutella xylostella [1]) | mortality at 24 ppm (Myzus persicae [4]) | mortality at 12 ppm (Myzus persicae [2]) | percent control (mortality, anti-feedant effect or growth inhibition) at 200 ppm (Spodoptera littoralis [3]) | percent control (mortality, anti-feeding or growth inhibition) at 12.5 ppm (Spodoptera littoralis [5]) | mortality at 50 ppm (Myzus persicae [6]) | mortality at 500 ppm (Plutella xylostella [7])

CC(c1nccnc1-c1ncccn1)N(CC1CC1)C(=O)c1cc(OC(F)F)cc(C(F)(F)F)c1 (stereo not drawn) [Compound P24, N-(cyclopropylmethyl)-3-(difluoromethoxy)-N-[1-(3-pyrimidin-2-ylpyrazin-2-yl)ethyl]-5-(trifluoromethyl)benzamide]
≥ 80%: percent control (mortality or growth inhibition) at 200 ppm (Diabrotica balteata) | percent control (mortality, anti-feedant effect or growth inhibition) at 200 ppm (Chilo suppressalis) | percent control (mortality or growth inhibition) at 200 ppm (Plutella xylostella [1]) | mortality at 200 ppm (Myzus persicae [8]) | mortality at 12 ppm (Myzus persicae [2]) | percent control (mortality, anti-feedant effect or growth inhibition) at 200 ppm (Spodoptera littoralis [3]) | mortality at 200 ppm (Tetranychus urticae) | mortality at 50 ppm (Myzus persicae [6])
